Reference: patent US20110152362A1, “METHODS OF TREATING EPILEPTOGENESIS AND EPILEPSY” (priority 2004, published 2011)
Marks after values point to notes of the source that are not given here.

System: rats subjected to li-pilo SE
Assay: Example 2: quantification of cell densities 14 days after li-pilo SE;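 further: Thionine-stained 20 µm brain sections, neurons with cell bodies above 10 µm counted, value is the mean of 12 fields per structure from three adjacent sections, both sides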
Details: 14 days after li-pilo SE

NC(=O)OC[C@@H](O)c1ccccc1Cl [TC]
number of neuronal cell bodies: Thalamus Dorsolateral, medial, dorsal (pilo-TC30 (TC 30 mg/kg)): 64.2 ± 9.3**°° | number of neuronal cell bodies: Thalamus Dorsolateral, ventral lateral (pilo-TC30 (TC 30 mg/kg)): 8.8 ± 2.8 | number of neuronal cell bodies: Thalamus Mediodorsal central (pilo-TC30 (TC 30 mg/kg)): 26.9 ± 0.6 | number of neuronal cell bodies: Thalamus Mediodorsal lateral (pilo-TC30 (TC 30 mg/kg)): 20.5 ± 0.7 | number of neuronal cell bodies: Thalamus Mediodorsal medial (pilo-TC30 (TC 30 mg/kg)): 11.5 ± 2.5 | number of neuronal cell bodies: Amygdala Basolateral (pilo-TC60 (TC 60 mg/kg)): 27.8 ± 4.3**°° | number of neuronal cell bodies: Amygdala Medial, dorsal anterior (pilo-TC60 (TC 60 mg/kg)): 58.4 ± 2.8**° | number of neuronal cell bodies: Amygdala Medial, ventral posterior (pilo-TC60 (TC 60 mg/kg)): 26.2 ± 2.9 | number of neuronal cell bodies: Cerebral cortex Entorhinal, layer II, dorsal (pilo-TC60 (TC 60 mg/kg)): 23.9 ± 0.5 | number of neuronal cell bodies: Cerebral cortex Entorhinal, layer II, ventral (pilo-TC60 (TC 60 mg/kg)): 23.3 ± 0.8 | number of neuronal cell bodies: Cerebral cortex Entorhinal, layer III/IV, dorsal (pilo-TC60 (TC 60 mg/kg)): 23.2 ± 0.8 | number of neuronal cell bodies: Cerebral cortex Entorhinal, layer III/IV, ventral (pilo-TC60 (TC 60 mg/kg)): 16.5 ± 2.2 | number of neuronal cell bodies: Cerebral cortex Piriform, layer II, dorsal (pilo-TC60 (TC 60 mg/kg)): 27.5 ± 2.8**°° | number of neuronal cell bodies: Cerebral cortex Piriform, layer II, ventral (pilo-TC60 (TC 60 mg/kg)): 13.7 ± 4.2 | number of neuronal cell bodies: Cerebral cortex Piriform, layer III (pilo-TC60 (TC 60 mg/kg)): 6.4 ± 2.3 | number of neuronal cell bodies: Hippocampus CA1 area (pilo-TC60 (TC 60 mg/kg)): 31.9 ± 44**°° | number of neuronal cell bodies: Hippocampus CA3 area (pilo-TC60 (TC 60 mg/kg)): 31.6 ± 1.4 | number of neuronal cell bodies: Hippocampus Hilus (pilo-TC60 (TC 60 mg/kg)): 32.8 ± 3.3 | number of neuronal cell bodies: Thalamus Central medial (pilo-TC60 (TC 60 mg/kg)): 83.7 ± 9.6 | number of neuronal cell bodies: Thalamus Dorsolateral, medial, dorsal (pilo-TC60 (TC 60 mg/kg)): 77.5 ± 3.9**°° | number of neuronal cell bodies: Thalamus Dorsolateral, ventral lateral (pilo-TC60 (TC 60 mg/kg)): 56.7 ± 8.7 | number of neuronal cell bodies: Thalamus Mediodorsal central (pilo-TC60 (TC 60 mg/kg)): 24.1 ± 1**^ | number of neuronal cell bodies: Thalamus Mediodorsal lateral (pilo-TC60 (TC 60 mg/kg)): 18.9 ± 0.6 | number of neuronal cell bodies: Thalamus Mediodorsal medial (pilo-TC60 (TC 60 mg/kg)): 19.1 ± 2.6 | number of neuronal cell bodies: Amygdala Basolateral (pilo-TC90 (TC 90 mg/kg)): 40.7 ± 1.6°° | number of neuronal cell bodies: Amygdala Medial, dorsal anterior (pilo-TC90 (TC 90 mg/kg)): 72.2 ± 5.7°° | number of neuronal cell bodies: Amygdala Medial, ventral posterior (pilo-TC90 (TC 90 mg/kg)): 30.7 ± 3.7°° | number of neuronal cell bodies: Cerebral cortex Entorhinal, layer II, dorsal (pilo-TC90 (TC 90 mg/kg)): 26.3 ± 0.9 | number of neuronal cell bodies: Cerebral cortex Entorhinal, layer II, ventral (pilo-TC90 (TC 90 mg/kg)): 25.4 ± 1.1°^ | number of neuronal cell bodies: Cerebral cortex Entorhinal, layer III/IV, dorsal (pilo-TC90 (TC 90 mg/kg)): 26.7 ± 0.8 | number of neuronal cell bodies: Cerebral cortex Entorhinal, layer III/IV, ventral (pilo-TC90 (TC 90 mg/kg)): 23.7 ± 1.5°° | number of neuronal cell bodies: Cerebral cortex Piriform, layer II, dorsal (pilo-TC90 (TC 90 mg/kg)): 32.4 ± 1.1°° | number of neuronal cell bodies: Cerebral cortex Piriform, layer II, ventral (pilo-TC90 (TC 90 mg/kg)): 18.4 ± 4.0°° | number of neuronal cell bodies: Cerebral cortex Piriform, layer III (pilo-TC90 (TC 90 mg/kg)): 9 ± 3.0°° | number of neuronal cell bodies: Hippocampus CA1 area (pilo-TC90 (TC 90 mg/kg)): 47.7 ± 6.6*° | number of neuronal cell bodies: Hippocampus CA3 area (pilo-TC90 (TC 90 mg/kg)): 35.1 ± 2.9 | number of neuronal cell bodies: Hippocampus Hilus (pilo-TC90 (TC 90 mg/kg)): 37.5 ± 3.1 | number of neuronal cell bodies: Thalamus Central medial (pilo-TC90 (TC 90 mg/kg)): 88.2 ± 8.5^ | number of neuronal cell bodies: Thalamus Dorsolateral, medial, dorsal (pilo-TC90 (TC 90 mg/kg)): 79.4 ± 3.1**°° | number of neuronal cell bodies: Thalamus Dorsolateral, ventral lateral (pilo-TC90 (TC 90 mg/kg)): 71.8 ± 5.3°°* | number of neuronal cell bodies: Thalamus Mediodorsal central (pilo-TC90 (TC 90 mg/kg)): 27.4 ± 1.5^ | number of neuronal cell bodies: Thalamus Mediodorsal lateral (pilo-TC90 (TC 90 mg/kg)): 22 ± 1.2*° | number of neuronal cell bodies: Thalamus Mediodorsal medial (pilo-TC90 (TC 90 mg/kg)): 23.1 ± 2.8°° | number of neuronal cell bodies: Amygdala Basolateral (pilo-TC120 (TC 120 mg/kg)): 42.7 ± 1.3°° | number of neuronal cell bodies: Amygdala Medial, dorsal anterior (pilo-TC120 (TC 120 mg/kg)): 80.2 ± 2.6°° | number of neuronal cell bodies: Amygdala Medial, ventral posterior (pilo-TC120 (TC 120 mg/kg)): 34.7 ± 1.7°° | number of neuronal cell bodies: Cerebral cortex Entorhinal, layer II, dorsal (pilo-TC120 (TC 120 mg/kg)): 27.3 ± 0.5°° | number of neuronal cell bodies: Cerebral cortex Entorhinal, layer II, ventral (pilo-TC120 (TC 120 mg/kg)): 25.1 ± 0.6^ | number of neuronal cell bodies: Cerebral cortex Entorhinal, layer III/IV, dorsal (pilo-TC120 (TC 120 mg/kg)): 26.4 ± 0.7°° | number of neuronal cell bodies: Cerebral cortex Entorhinal, layer III/IV, ventral (pilo-TC120 (TC 120 mg/kg)): 24.5 ± 1.4°° | number of neuronal cell bodies: Cerebral cortex Piriform, layer II, dorsal (pilo-TC120 (TC 120 mg/kg)): 35.2 ± 1.1°° | number of neuronal cell bodies: Cerebral cortex Piriform, layer II, ventral (pilo-TC120 (TC 120 mg/kg)): 30.5 ± 1.3°° | number of neuronal cell bodies: Cerebral cortex Piriform, layer III (pilo-TC120 (TC 120 mg/kg)): 15 ± 2.2°° | number of neuronal cell bodies: Hippocampus CA1 area (pilo-TC120 (TC 120 mg/kg)): 65.5 ± 2.9°° | number of neuronal cell bodies: Hippocampus CA3 area (pilo-TC120 (TC 120 mg/kg)): 39.8 ± 1.5 | number of neuronal cell bodies: Hippocampus Hilus (pilo-TC120 (TC 120 mg/kg)): 44.8 ± 2.9 | number of neuronal cell bodies: Thalamus Central medial (pilo-TC120 (TC 120 mg/kg)): 108.2 ± 6.6° ^ | number of neuronal cell bodies: Thalamus Dorsolateral, medial, dorsal (pilo-TC120 (TC 120 mg/kg)): 89.8 ± 3.7*° | number of neuronal cell bodies: Thalamus Dorsolateral, ventral lateral (pilo-TC120 (TC 120 mg/kg)): 79.0 ± 4.7°° | number of neuronal cell bodies: Thalamus Mediodorsal central (pilo-TC120 (TC 120 mg/kg)): 29.9 ± 1.7°^ | number of neuronal cell bodies: Thalamus Mediodorsal lateral (pilo-TC120 (TC 120 mg/kg)): 24.4 ± 1.1°° | number of neuronal cell bodies: Thalamus Mediodorsal medial (pilo-TC120 (TC 120 mg/kg)): 28.6 ± 0.8°°
